Measured values published in paper PMC6131557, “Selective Cytotoxicity of Dihydroorotate Dehydrogenase Inhibitors to Human Cancer Cells Under Hypoxia and Nutrient-Deprived Conditions” (Frontiers in Pharmacology, 2018).
Where two headings read alike, the source gives them in different places.

Columns and labels:
[1] = target: T1, human dihydroorotate dehydrogenase (HsDHODH) (Homo sapiens, UniProt Q02127); assay: Inhibition of recombinant human DHODH enzyme activity; type: biochemical; conditions: for IC50: recombinant human DHODH; for inhibition at 1 µM: at 1,000 nM, read-out: Inhibition of HsDHODH activity (value in parentheses); for fold increase in the IC50 in comparison to 3: HsDHODH IC50 versus compound 3
T1 construct: made in house
T1 sequence (Q02127 whole entry): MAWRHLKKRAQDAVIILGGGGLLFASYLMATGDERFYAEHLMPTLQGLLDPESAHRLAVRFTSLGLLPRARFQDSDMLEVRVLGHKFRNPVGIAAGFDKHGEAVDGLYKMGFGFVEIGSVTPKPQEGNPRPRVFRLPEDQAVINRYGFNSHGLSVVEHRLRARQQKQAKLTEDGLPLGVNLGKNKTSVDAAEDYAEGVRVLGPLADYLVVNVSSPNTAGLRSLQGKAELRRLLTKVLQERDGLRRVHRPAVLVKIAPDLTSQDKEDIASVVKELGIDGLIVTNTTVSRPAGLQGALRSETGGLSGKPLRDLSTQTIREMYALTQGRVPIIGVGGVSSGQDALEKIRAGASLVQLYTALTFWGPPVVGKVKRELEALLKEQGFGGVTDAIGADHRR

[2] = target: Complex II–III; assay: Succinate-cytochrome c reductase (complexes II–III) activity, bovine mitochondria; type: biochemical
Experimental: (§1) Recombinant human DHODH was purified, crystallized, and assayed as previously described ([Inaoka et al., 2016]) without modification. Bovine mitochondrial fractions were prepared as previously described ([Kita et al., 1988]) and NADH dehydrogenase (complex I), succinate:quinone reductase (complex II), quinol oxidase (complexes III–IV), NADH-cytochrome c reductase (complexes I–III), and succinate-cytochrome c (complexes II–III) activities were assayed following an established method ([Takamiya et al., 1986]; [Miyadera et al., 2001]; [Matsumoto et al., 2008]; [Kido et al., 2010]; [Nihashi et al., 2017]).

[3] = target: T2, Complex II (Bos taurus, UniProt P35720+Q3T189+Q95123); assay: Succinate:quinone reductase (complex II) activity, bovine mitochondria; type: biochemical
T2 construct: from tissue; host or cells: bovine mitochondrial fraction / sub-mitochondrial particles
T2 sequence (P31039 45-665 partner limits assumed): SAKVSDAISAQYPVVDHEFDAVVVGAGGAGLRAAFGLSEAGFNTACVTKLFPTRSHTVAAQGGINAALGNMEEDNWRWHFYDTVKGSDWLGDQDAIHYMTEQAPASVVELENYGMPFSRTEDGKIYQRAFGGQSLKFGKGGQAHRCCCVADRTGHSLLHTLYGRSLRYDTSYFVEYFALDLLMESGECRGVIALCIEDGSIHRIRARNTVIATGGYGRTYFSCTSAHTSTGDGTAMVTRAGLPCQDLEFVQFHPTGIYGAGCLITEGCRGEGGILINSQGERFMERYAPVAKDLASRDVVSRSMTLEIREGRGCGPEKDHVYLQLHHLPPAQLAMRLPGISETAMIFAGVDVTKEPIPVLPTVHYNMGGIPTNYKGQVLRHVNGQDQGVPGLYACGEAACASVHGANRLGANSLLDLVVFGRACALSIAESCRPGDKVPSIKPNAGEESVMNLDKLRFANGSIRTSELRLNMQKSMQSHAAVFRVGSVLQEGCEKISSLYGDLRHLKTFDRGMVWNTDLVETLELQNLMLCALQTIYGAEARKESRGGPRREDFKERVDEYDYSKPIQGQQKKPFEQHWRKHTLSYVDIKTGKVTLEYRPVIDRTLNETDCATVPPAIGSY
T2 sequence (Q3T189 29-280): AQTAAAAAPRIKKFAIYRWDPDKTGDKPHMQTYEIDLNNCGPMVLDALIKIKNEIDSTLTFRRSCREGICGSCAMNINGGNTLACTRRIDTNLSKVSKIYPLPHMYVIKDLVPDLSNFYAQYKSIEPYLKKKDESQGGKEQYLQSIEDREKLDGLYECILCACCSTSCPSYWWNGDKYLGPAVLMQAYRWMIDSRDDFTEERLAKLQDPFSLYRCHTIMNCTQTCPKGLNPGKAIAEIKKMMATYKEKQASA
T2 sequence (P35720 30-169): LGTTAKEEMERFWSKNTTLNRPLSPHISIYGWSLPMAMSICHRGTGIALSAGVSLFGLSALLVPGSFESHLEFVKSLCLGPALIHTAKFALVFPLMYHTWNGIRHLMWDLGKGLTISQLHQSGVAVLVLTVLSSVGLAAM
T2 sequence (Q95123 56-158): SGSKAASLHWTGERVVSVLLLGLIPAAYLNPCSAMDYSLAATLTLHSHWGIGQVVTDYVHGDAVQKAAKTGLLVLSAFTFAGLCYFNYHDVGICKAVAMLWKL

[4] = target: Complexes I–III; assay: NADH-cytochrome c reductase (complexes I–III) activity, bovine mitochondria; type: biochemical
Experimental: as §1

[5] = target: T3, Complex III (Bos taurus, UniProt P00157); assay: Quinol oxidase (complex III) activity, bovine mitochondria; type: biochemical; conditions: ubiquinol oxidase activity
T3 construct: from tissue; host or cells: bovine mitochondrial fraction / sub-mitochondrial particles

[6] = system: Complex I; assay: NADH dehydrogenase (complex I) activity, bovine mitochondria; type: biochemical; conditions: at 5 μM
Experimental: as §1

[7] = system: MKN45; assay: 39-cancer cell panel assay: MKN45; type: cell-based; conditions: Homo sapiens, MKN-45, St
[8] = system: MKN28; assay: 39-cancer cell panel assay: MKN28; type: cell-based; conditions: Homo sapiens, MKN-28, St
[9] = system: A549; assay: 39-cancer cell panel assay: A549; type: cell-based; conditions: Homo sapiens, Lu
[10] = system: HCC2998; assay: 39-cancer cell panel assay: HCC2998; type: cell-based; conditions: Homo sapiens, HCC 2998, Co
[11] = system: ACHN; assay: 39-cancer cell panel assay: ACHN; type: cell-based; conditions: Homo sapiens, Re
[12] = system: MKN1; assay: 39-cancer cell panel assay: MKN1; type: cell-based; conditions: Homo sapiens, MKN-1, St
[13] = system: HT-29; assay: 39-cancer cell panel assay: HT-29; type: cell-based; conditions: Homo sapiens, Co
[14] = system: SNB-78; assay: 39-cancer cell panel assay: SNB-78; type: cell-based; conditions: Homo sapiens, CNS
[15] = system: MKN74; assay: 39-cancer cell panel assay: MKN74; type: cell-based; conditions: Homo sapiens, MKN-74, St
[16] = system: PC-3; assay: 39-cancer cell panel assay: PC-3; type: cell-based; conditions: Homo sapiens, Pro
[17] = system: SK-OV-3; assay: 39-cancer cell panel assay: SK-OV-3; type: cell-based; conditions: Homo sapiens
[18] = system: DMS114; assay: 39-cancer cell panel assay: DMS114; type: cell-based; conditions: Homo sapiens, DMS-114, Lu
[19] = system: NCI-H226; assay: 39-cancer cell panel assay: NCI-H226; type: cell-based; conditions: Homo sapiens, Lu
[20] = system: HCT-116; assay: 39-cancer cell panel assay: HCT-116; type: cell-based; conditions: Homo sapiens, Co
[21] = system: HCT-15; assay: 39-cancer cell panel assay: HCT-15; type: cell-based; conditions: Homo sapiens, Co
[22] = system: DU-145; assay: 39-cancer cell panel assay: DU-145; type: cell-based; conditions: Homo sapiens, Pro
[23] = system: HBC-5; assay: 39-cancer cell panel assay: HBC-5; type: cell-based; conditions: Homo sapiens, HBC5, Br
[24] = system: BSY-1; assay: 39-cancer cell panel assay: BSY-1; type: cell-based; conditions: Homo sapiens, Br
[25] = system: HBC-4; assay: 39-cancer cell panel assay: HBC-4; type: cell-based; conditions: Homo sapiens, HBC4, Br
[26] = system: OVCAR-8; assay: 39-cancer cell panel assay: OVCAR-8; type: cell-based; conditions: Homo sapiens, Ov
[27] = system: RXF-631L; assay: 39-cancer cell panel assay: RXF-631L; type: cell-based; conditions: Homo sapiens, Re
[28] = system: MCF-7; assay: 39-cancer cell panel assay: MCF-7; type: cell-based; conditions: Homo sapiens, MCF7, Br
[29] = system: MDA-MB-231; assay: 39-cancer cell panel assay: MDA-MB-231; type: cell-based; conditions: Homo sapiens, Br
[30] = system: NCI-H23; assay: 39-cancer cell panel assay: NCI-H23; type: cell-based; conditions: Homo sapiens, Lu
[31] = system: LOX-IMVI; assay: 39-cancer cell panel assay: LOX-IMVI; type: cell-based; conditions: Homo sapiens, Me
[32] = system: SF-539; assay: 39-cancer cell panel assay: SF-539; type: cell-based; conditions: Homo sapiens, CNS
[33] = system: MKN7; assay: 39-cancer cell panel assay: MKN7; type: cell-based; conditions: Homo sapiens, MKN-7, St
[34] = system: NCI-H460; assay: 39-cancer cell panel assay: NCI-H460; type: cell-based; conditions: Homo sapiens, Lu
[35] = system: NCI-H522; assay: 39-cancer cell panel assay: NCI-H522; type: cell-based; conditions: Homo sapiens, Lu
[36] = system: SF-295; assay: 39-cancer cell panel assay: SF-295; type: cell-based; conditions: Homo sapiens, CNS
[37] = system: St-4; assay: 39-cancer cell panel assay: St-4; type: cell-based; conditions: Homo sapiens
[38] = system: SF-268; assay: 39-cancer cell panel assay: SF-268; type: cell-based; conditions: Homo sapiens, CNS
[39] = system: OVCAR-4; assay: 39-cancer cell panel assay: OVCAR-4; type: cell-based; conditions: Homo sapiens, Ov
[40] = system: KM-12; assay: 39-cancer cell panel assay: KM-12; type: cell-based, human; conditions: Co
[41] = system: DMS273; assay: 39-cancer cell panel assay: DMS273; type: cell-based; conditions: Homo sapiens, DMS-273, Lu
[42] = system: U251; assay: 39-cancer cell panel assay: U251; type: cell-based; conditions: Homo sapiens, U-251, CNS
[43] = system: SNB-75; assay: 39-cancer cell panel assay: SNB-75; type: cell-based; conditions: Homo sapiens, CNS
[44] = system: OVCAR-3; assay: 39-cancer cell panel assay: OVCAR-3; type: cell-based; conditions: Homo sapiens, Ov
[45] = system: OVCAR-5; assay: 39-cancer cell panel assay: OVCAR-5; type: cell-based; conditions: Homo sapiens, Ov
[46] = system: DLD-1 cells; assay: Cytotoxicity assay (Cell Counting Kit-8 / WST-8) on DLD-1 cells; type: cell-based, human; conditions: at higher concentrations (100 μM); Supplementary Figure S7
Experimental: For hypoxia and nutrient-deprived culture conditions, cells were incubated under 1% oxygen in glucose and glutamine-free DMEM (Gibco) without FBS.
DLD-1 or HDF cells were seeded at 2.5 × 10^4 cells/well on a 96-well plate with normal medium, and cultured overnight under normal culture condition. The cells were washed with PBS and the medium was replaced to either normal medium or glucose and glutamine-free DMEM without FBS. Test compounds or DMSO as a control were added to the wells. The cells in normal medium were cultured under normal culture conditions, while cells in nutrient-deprived medium were cultured under hypoxia condition. After 24 or 48 h incubation, the cells were washed with PBS, 100 μl of fresh normal medium, and 10 μl of Cell Counting Kit-8 solution (Donjindo, Japan) was added to each well. After 3 h incubation under normal culture condition, the absorbance was measured at 450 nm using SpectraMax M2e-TUY microplate reader (Molecular Devices). Cell viability of test wells was calculated based on absorbance of control wells containing DMSO according to manufacturer’s protocol.

[47] = purified enzyme fixed at 10 nM, read-out: IC50 (nM), inhibition of human DHODH

C/C(=C\Cc1c(O)c(Cl)c(C)c(C=O)c1O)CC/C=C(\C)C1CC(=O)C(C)(C)O1 (racemic) [Compound 2, racemic-AF]
IC50 [1, 47]: 97.4 ± 7.3 nM

COc1[nH]c(=O)c(C(=O)[C@@H](C)C[C@H](C)[C@@H](Cl)CCl)c(O)c1OC [Atpenin A5, reference compound]
IC50 [2]: 0.0063 ± 0.0002 µM | inhibition at 5 µM [3]: 97 ± 1% | IC50 [4]: 2.8 ± 0.44 µM | inhibition at 5 µM [5]: 0% | IC50 ([1]; IC50 (μM) HsDHODH, Table 6): > 10000 nM | Inhibition (%) Complex I [6]: 10 ± 2.7%

CC(C)=CCC/C(C)=C/Cc1c(O)c(Cl)c(C)c(C=O)c1O [Compound 3, colletochlorin B]
IC50 [1, 47]: 74.1 ± 22 nM

C/C(=C\COC(=O)C(C)(C)C)CC/C(C)=C/Cc1c(O)c(Cl)c(C)c(C=O)c1O [Compound 11]
IC50 [1, 47]: 67.2 ± 2.8 nM

C/C(=C\COC(=O)C(C)C)CC/C(C)=C/Cc1c(O)c(Cl)c(C)c(C=O)c1O [Compound 12]
GI50 [7]: 24 µM | GI50 [8]: 13 µM | GI50 [9]: 7.1 µM | GI50 [10]: 16 µM | GI50 [11]: 16 µM | GI50 [12]: 12 µM | GI50 [13]: 5.8 µM | GI50 [14]: 28 µM | GI50 [15]: 11 µM | GI50 [16]: 13 µM | GI50 [17]: 49 µM | GI50 [18]: 12 µM | GI50 [19]: 8 µM | GI50 [20]: 4.6 µM | GI50 [21]: 1.9 µM | GI50 [22]: 23 µM | GI50 [23]: 18 µM | GI50 [24]: 16 µM | GI50 [25]: 9.4 µM | GI50 [26]: 9.4 µM | GI50 [27]: 16 µM | GI50 [28]: 6.7 µM | GI50 [29]: 10 µM | GI50 [30]: 13 µM | GI50 [31]: 3.4 µM | GI50 [32]: 2.2 µM | GI50 [33]: 16 µM | GI50 [34]: 4.5 µM | GI50 [35]: 4.2 µM | GI50 [36]: 16 µM | GI50 [37]: 17 µM | GI50 [38]: 9.5 µM | GI50 [39]: 19 µM | GI50 (μM) KM-12 [40]: 10.0 µM | GI50 [41]: 3.6 µM | GI50 [42]: 4.9 µM | GI50 [43]: 28 µM | GI50 [44]: 7.1 µM | GI50 [45]: 22 µM

C/C(=C\CC/C=C/Cc1c(O)c(Cl)c(C)c(C=O)c1O)COC(=O)C(C)(C)C [Compound 13]
fold decrease (IC50 compared to 4) ([1]; HsDHODH IC50 versus compound 4): about 3.5 fold | IC50 [1, 47]: 349 ± 96 nM

Cc1c(Cl)c(O)c(CCC(C)CCCC(C)COC(=O)C(C)(C)C)c(O)c1C=O (centres unmarked) [Compound 14]
HsDHODH inhibition activity (in words) [1]: abolished | inhibition at 1 µM [1]: 35% | IC50 [1, 47]: > 1000 nM

Cc1c(Cl)c(O)c(CCC(C)CCCCOC(=O)C(C)(C)C)c(O)c1C=O (centres unmarked) [Compound 16]
inhibition at 1 µM [1]: 21% | IC50 [1, 47]: > 1000 nM

CCCCC/C(C)=C/Cc1c(O)c(Cl)c(C)c(C=O)c1O [Compound 17]
IC50 [1, 47]: 71.4 ± 2.4 nM

CCCCCC(C)CCc1c(O)c(Cl)c(C)c(C=O)c1O (centres unmarked) [Compound 18]
inhibition at 1 µM [1]: 37% | IC50 [1, 47]: > 1000 nM

CC(=O)c1c(C)c(Cl)c(O)c(C/C=C(\C)CC/C=C(\C)C2CC(=O)C(C)(C)O2)c1O (centres unmarked) [Compound 19]
HsDHODH inhibition activity (in words) [1]: lost | inhibition at 1 µM [1]: 3% | IC50 [1, 47]: > 1000 nM

C/C(=C\Cc1c(O)c(Cl)c(C)c(CO)c1O)CC/C=C(\C)COC(=O)C(C)(C)C [Compound 20]
IC50 [1, 47]: 3530 nM

COc1c(Cl)c(C)c(C=O)c(O)c1C/C=C(\C)CC/C=C(\C)[C@@H]1CC(=O)C(C)(C)O1 [Compound 21]
inhibition at 1 µM [1]: 3% | IC50 [1, 47]: > 1000 nM

CC(C)=CCC/C(C)=C/Cc1c(O)cc(C)c(C=O)c1O [Compound 22, Colletorin B]
fold increase in the IC50 in comparison to 3 [1]: > 13 fold | inhibition at 1 µM [1]: 20% | IC50 [1, 47]: > 1000 nM

CC(C)=CCC/C(C)=C/Cc1c(O)c(Cl)cc(C=O)c1O [Compound 24]
fold increase in the IC50 in comparison to 3 [1]: > 13 fold | inhibition at 1 µM [1]: 36% | IC50 [1, 47]: > 1000 nM

C/C(O)=C(\C#N)C(=O)Nc1ccc(C(F)(F)F)cc1 [Compound A771726, teriflunomide, reference compound]
effect on DLD-1 under hypoxia/nutrient-deprived conditions (in words) [46]: specific inhibition under hypoxia/nutrient-deprived condition was observed

C=C(C)[C@H]1Cc2c(ccc3c2O[C@@H]2COc4cc(OC)c(OC)cc4[C@@H]2C3=O)O1 [Rotenone, reference compound]
IC50 [2]: > 10 µM | inhibition at 5 µM [3]: 6.4 ± 7.9% | IC50 [4]: 0.0063 ± 0.0001 µM | inhibition at 5 µM [5]: 1.1 ± 2.8% | IC50 ([1]; IC50 (μM) HsDHODH, Table 6): > 10000 nM | Inhibition (%) Complex I [6]: 94 ± 1.5%
